Like-named read-outs stand apart in the source and are kept apart here.
Tests used:
[1] = test system: tumor; test: Prophylactic effect on development of tumor (DMBA-initiated, croton oil-promoted, coated on depilated back); assay type: in vivo, ICR mice; details: groups of 10 mice, 4 months
Description: To groups of 10 ICR mice, was applied 0.2% acetone solution of a cancerigenic agent, dimethylbenzanthracene (abbreviated hereinafter as DMBA) by coating said solution on the depilated back of the mice once a day for two weeks. From one week after the final administration of DMBA, an acetone solution of. 0.06% croton oil and a lotion containing an acetone solution of 0.06% croton oil and the active ingredient according to the present invention were coated successively on the back once a day for 4 months.
The lotion used above was prepared according to the following process:
A desired amount of α-tocopherol vitamin A acid ester was dissolved in 10 g of ethyl alcohol together with 0.5 g of […] sorbitan monolaurate and 6 g of glycerin and purified water were added thereto to make up the total 100 g. The solution thus obtained was stirred thoroughly to give lotion.

[2] = test system: tumor; test: Therapeutic effect on tumor (DMBA-induced, hairless mice); assay type: in vivo; details: three weeks, counted on each animal
Procedure: On the back of hairless mice was coated 0.2% DMBA dissolved in olive oil with a brush three times a week for 2 months. After confirmation of development of tumor, test zone comprising groups of five mice was arranged indiscriminately. To these animals was administered α-tocopherol vitamin A acid ester either topically or orally and change of tumor was observed.
the back of animal twice a day with brush.

[3] = Acute toxicity in mice (LD50); assay type: in vivo; details: for LD50: mouse, in vivo
Description: Acute toxicity in mice of α-tocopherol vitamin A acid ester which is the active ingredient of the antitumor agent of this invention is particularly low as shown below, even when any route of administration such as oral route, intraperitoneal route or intravenous injection is applied.

[4] = in vivo; cited from earlier work
[5] = test system: experimental tumor developed on epithelial cells; details: prophylaxis or therapy of experimental tumor; cited from earlier work
[6] = 0.3% lotion, percutaneous, without croton oil
[7] = croton oil + 0.02% lotion, percutaneous, croton oil alone 10
[8] = croton oil + 0.3% lotion, percutaneous, croton oil alone 10
[9] = 0.01% lotion, topical twice a day, control 5
[10] = 0.01% lotion, topical twice a day, control 8
[11] = 0.01% lotion, topical twice a day, control 17
[12] = 0.05% lotion, topical twice a day, control 5
[13] = 0.05% lotion, topical twice a day, control 8
[14] = 0.05% lotion, topical twice a day, control 17
[15] = intravenous, read-out: LD50, intravenous injection
[16] = ip, intraperitoneal, read-out: LD50, intraperitoneal administration
[17] = oral, read-out: LD50, oral administration

Row | Structure (SMILES) | Number of animals in which tumor was developed [1, 6] | Number of animals in which tumor was developed [1, 7] | Number of animals in which tumor was developed [1, 8] | Average number of tumor, smaller than 2mm [2, 9] | Average number of tumor, 5-2mm [2, 10] | Average number of tumor, larger than 5mm [2, 11] | Average number of tumor, smaller than 2mm [2, 12] | Average number of tumor, 5-2mm [2, 13] | Average number of tumor, larger than 5mm [2, 14] | LD50 [3, 15] | LD50 [3, 16] | LD50 [3, 17] | other results
1 | CC1=C(/C=C/C(C)=C/C=C/C(C)=C/C(=O)Oc2c(C)c(C)c3c(c2C)CCC(C)(CCCC(C)CCCC(C)CCCC(C)C)O3)C(C)(C)CCC1 (stereo not drawn) [α-tocopherol-trans-vitamin A acid ester] | 0 | 5 | 2 | 8 | 5 | 7 | 13 | 6 | 1 | > 1000 mg/kg | > 10000 mg/kg | > 10000 mg/kg | Number of animals in which tumor was developed ([1]; croton oil + 200mg/day, oral, croton oil alone 10): 3; Average number of tumor, smaller than 2mm ([2]; 200mg/kg, oral, control (topical) 5): 10; Average number of tumor, 5-2mm ([2]; 200mg/kg, oral, control (topical) 8): 6; Average number of tumor, larger than 5mm ([2]; 200mg/kg, oral, control (topical) 17): 4; Average number of tumor, smaller than 2mm ([2]; 500mg/kg, oral, control (topical) 5): 6; Average number of tumor, 5-2mm ([2]; 500mg/kg, oral, control (topical) 8): 5; Average number of tumor, larger than 5mm ([2]; 500mg/kg, oral, control (topical) 17): 2
2 | CC1=C(/C=C/C(C)=C/C=C/C(C)=C\C(=O)Oc2c(C)c(C)c3c(c2C)CCC(C)(CCCC(C)CCCC(C)CCCC(C)C)O3)C(C)(C)CCC1 (stereo not drawn) [α-tocopherol-13-cis-vitamin A acid ester] | 0 | 4 | 2 | 8 | 3 | 4 | 4 | 6 | 2 | > 1000 mg/kg | > 10000 mg/kg | > 10000 mg/kg | 
3 | CC1=C(/C=C/C(C)=C/C=C/C(C)=C/C(=O)O)C(C)(C)CCC1 [Vitamin A acid, vitamin A acid, reference compound] |  |  |  |  |  |  |  |  |  |  |  |  | Toxicity (in words) [4]: quite strongly toxic; Antitumor activity (in words) [5]: effective for prophylaxis of development or therapy of experimental tumor developed on epithelial cells; LD50, intraperitoneal administration ([3]; intraperitoneal): 150 mg/kg; LD50, intravenous injection ([3]; intravenous): 92 mg/kg; LD50, oral administration ([3]; oral): 780 mg/kg

Reference: US4320141A, “Antitumor agent” (priority 1977, dated 1982)
